Reference: US20110135755A1, “Combination therapies for treating neoplastic disease” (priority 2009, published 2011)
Entries after “also recorded” stand apart in the source; their conditions may differ.

Tests used:
[1] = tested on: HCT 8 and T47D cell lines; assay: MTT, SRB and CVE assays with exposure of up to 10 days; assay type: cell-based; conditions: 18000 and 26000 cells/well
Text: Graphs depicting the results obtained are shown in FIGS. 6 to 11 (it should be noted that some graphs have the x axis displaying cancer cell kill, whilst others display cancer cell viability).

[2] = Element concentrations in kidney samples of treated rats; assay type: in vivo; conditions: rat kidney; cisplatin single iv 6.5 mg/kg; CV247 oral 3 ml/kg bd, fourteen days
Text: Liver and kidney samples were subsequently examined to see if CV 247 protected the rats from the accumulation of platinum and platinum free radicals, and what kind of metal ion concentration changes occur after treatment.

For `N.N.[Cl][Pt][Cl]` [Cisplatin, cis-diamminedichloroplatinum], the “effect on cancer cell kill / viability at cisplatin dose of 1 mg” value ([1]; cisplatin 1 mg alone or with CV247) was “only a marginal long term benefit; also recorded: effect after 4 days was often reduced”, the “effect on cancer cell kill / viability” value ([1]; high doses of cisplatin, CV247 alone) was “cytotoxic” and the Pt [2] was 3.048 ± 0.583.
